Experiments:
Assay in all cases: relative viability (nuclei count vs DMSO), 5 days (fraction); higher = more cells survive
[1] = compound: C1CN(CCN1)C2=CC=C(C=C2)C3=CN4C(=C(C=N4)C5=CC=NC6=CC=CC=C56)N=C3 [DM3189] + CC(C)C[C@H](NC(=O)[C@H](Cc1ccccc1)NC(=O)c1cnccn1)B(O)O [Bortezomib] (partner 0.002 µM)
In short: (§1)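 After 5 days of treatment, lung cancer cells in 1536-well plates were fixed and stained in a single step (final 0.05% Triton X-100, 1% formaldehyde, 1 ug/ml Hoechst) and their nuclei counted on 4× images. Treatment had been applied by pin tool the day after seeding as one drug alone or as a fixed anchor-drug dose with five library-drug doses (not always all listed) in √10 steps. Relative viability is the nuclei count of treated wells divided by that of vehicle wells, and values are medians of duplicate plates.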

[2] = compound: C1CN(CCN1)C2=CC=C(C=C2)C3=CN4C(=C(C=N4)C5=CC=NC6=CC=CC=C56)N=C3 [DM3189] + CS(=O)(=O)N1CCN(Cc2cc3nc(-c4cccc5[nH]ncc45)nc(N4CCOCC4)c3s2)CC1 [Pictilisib] (partner 1 µM)
In short: as §1

[3] = compound: C1CN(CCN1)C2=CC=C(C=C2)C3=CN4C(=C(C=N4)C5=CC=NC6=CC=CC=C56)N=C3 [DM3189] + COc1cccc2cc(-c3nc([C@H]4CC[C@H](C(=O)O)CC4)n4ncnc(N)c34)[nH]c12 [OSI-027] (partner 0.5 µM)
In short: as §1

[4] = compound: C1CN(CCN1)C2=CC=C(C=C2)C3=CN4C(=C(C=N4)C5=CC=NC6=CC=CC=C56)N=C3 [DM3189] + CC1(C)CCC(c2ccc(Cl)cc2)=C(CN2CCN(c3ccc(C(=O)NS(=O)(=O)c4ccc(N[C@H](CCN5CCOCC5)CSc5ccccc5)c(S(=O)(=O)C(F)(F)F)c4)cc3)CC2)C1 [Navitoclax] (partner 0.5 µM)
In short: as §1

[5] = compound: C1CN(CCN1)C2=CC=C(C=C2)C3=CN4C(=C(C=N4)C5=CC=NC6=CC=CC=C56)N=C3 [DM3189] + CS(=O)(=O)CCNCc1ccc(-c2ccc3ncnc(Nc4ccc(OCc5cccc(F)c5)c(Cl)c4)c3c2)o1 [Lapatinib] (partner 2 µM)
In short: as §1

Row | Cell Line | relative viability ([1]; first compound 0.08 µM) | relative viability ([1]; first compound 0.253 µM) | relative viability ([1]; first compound 0.8 µM) | relative viability ([1]; first compound 2.53 µM) | relative viability ([2]; first compound 0.08 µM) | relative viability ([2]; first compound 0.253 µM) | relative viability ([2]; first compound 0.8 µM) | relative viability ([2]; first compound 2.53 µM) | relative viability ([3]; first compound 0.08 µM) | relative viability ([3]; first compound 0.253 µM) | relative viability ([3]; first compound 0.8 µM) | relative viability ([3]; first compound 2.53 µM) | relative viability ([4]; first compound 0.08 µM) | relative viability ([4]; first compound 0.253 µM) | relative viability ([4]; first compound 0.8 µM) | relative viability ([4]; first compound 2.53 µM) | relative viability ([5]; first compound 0.08 µM) | relative viability ([5]; first compound 0.253 µM) | relative viability ([5]; first compound 0.8 µM) | relative viability ([5]; first compound 2.53 µM)
1 | LCLC-103H | 1.14 | 0.939 | 0.955 | 1.07 | 0.737 | 0.618 | 0.558 | 0.622 | 0.513 | 0.435 | 0.442 | 0.41 | – | – | – | – | – | – | – | –
2 | ChaGo-K-1 | 1.32 | 0.882 | 1.01 | 0.757 | 0.756 | 0.67 | 0.808 | 0.584 | 0.594 | 0.607 | 0.383 | 0.589 | 1.22 | 0.971 | 1.1 | 0.825 | – | – | – | –
3 | NCI-H1703 | 0.365 | 0.292 | 0.326 | 0.298 | 0.28 | 0.205 | 0.257 | 0.257 | – | – | – | – | 1.08 | 1.05 | 1 | 0.709 | 1.2 | 1.15 | 1.17 | 1.14
4 | LK-2 | – | – | – | – | 0.378 | 0.278 | 0.262 | 0.306 | 0.193 | 0.155 | 0.159 | 0.174 | 0.72 | 0.626 | 0.483 | 0.57 | 0.613 | 0.625 | 0.458 | 0.43
5 | NCI-H661 | 0.931 | 0.997 | 1.06 | 1.14 | 0.44 | 0.453 | 0.509 | 0.389 | 0.772 | 0.669 | 0.709 | 0.584 | – | – | – | – | 0.564 | 0.579 | 0.53 | 0.614
6 | NCI-H1793 | – | – | – | – | 0.311 | 0.306 | 0.281 | 0.31 | 0.279 | 0.247 | 0.245 | 0.319 | 0.422 | 0.396 | 0.421 | 0.478 | 0.653 | 0.773 | 1.01 | 0.711
7 | NCI-H1395 | – | – | – | – | 0.625 | 0.618 | 0.459 | 0.562 | 0.709 | 0.572 | 0.54 | 0.6 | 1.22 | 0.958 | 0.74 | 1.17 | 1.1 | 0.92 | 0.724 | 0.896
8 | SK-MES-1 | – | – | – | – | 0.305 | 0.3 | 0.289 | 0.319 | 0.602 | 0.53 | 0.523 | 0.481 | 1.21 | 1.28 | 1.08 | 1.18 | 0.458 | 0.416 | 0.456 | 0.402
9 | NCI-H1563 | 0.945 | 0.762 | 0.887 | 1.07 | 0.635 | 0.622 | 0.625 | 0.616 | 0.876 | 0.673 | 0.749 | 0.785 | – | – | – | – | 1.12 | 0.872 | 0.854 | 1.27
10 | IA-LM | 1.28 | 0.935 | 1.37 | 0.956 | 0.355 | 0.353 | 0.426 | 0.566 | – | – | – | – | 1.22 | 1.22 | 0.951 | 0.987 | 1.09 | – | 0.855 | 1.02

— the supplement of paper PMC10307832
